Experimental data published in patent US6624179B1, “Geometrical isomers of acrylonitrile compounds, mixture thereof, and process for producing these” (Ishihara Sangyo Kaisha Ltd., priority 1999, dated 2003).
“Also recorded” adds a separate entry of the source.

Key:
[1] = test system: two-spotted spider mite (Tetranychus urticae); experiment: Test Example 2: spray application to eggplant infested with two-spotted spider mite, greenhouse; assay type: in vivo; conditions: for Number of adult two-spotted spite mite 5th day / Number of adult two-spotted spite mite 9th day / Number of adult two-spotted spite mite 12th day / Number of adult two-spotted spite mite 15th day: 150 ppm active ingredient, sprayed; for Number of adult two-spotted spite mite 5th day: 10% water-based suspension concentrate in water with 0.02% spreader, 5th day after application; for Number of adult two-spotted spite mite 9th day: 9th day after application; for Number of adult two-spotted spite mite 12th day: 12th day after application; for Number of adult two-spotted spite mite 15th day: 15th day after application; for pesticidal effects (in words): 150 ppm, two-spotted spider mite on eggplant, conclusion from Table 2; for Number of adult two-spotted spite mite Before application: baseline count before application, on the eggplant
Excerpt: A 10% water-based suspension concentrate of each of compounds H and G was dispersed in water containing 0.02% of a spreader (Shinrino, manufactured by NIHON NOHYAKU CO., LTD.) to obtain a chemical solution wherein the active ingredient was 150 ppm. Such a chemical solution was applied to an eggplant (Solanum melongena) infested with two-spotted spider mite (Tetranychus urticae) (planted in a plastic pot having a diameter of 17 cm and a height of 19 cm) by means of a sprayer, and then left to stand in a greenhouse. Before the application and on the 5th day, 9th day, 12th day and 15th day after the application, the number of adult two-spotted spider mite on the eggplant was counted.

[2] = test system: citrus red mite (Panonychus citri); experiment: Test Example 1: spray application to satsuma mandarin infested with citrus red mite, greenhouse; assay type: in vivo; conditions: for Number of adult citrus red mite 7th day / Number of adult citrus red mite 12th day / Number of adult citrus red mite 18th day / Number of adult citrus red mite 26th day: 150 ppm active ingredient, sprayed; for Number of adult citrus red mite 7th day: 10% water-based suspension concentrate, 7th day after application; for Number of adult citrus red mite 12th day: 12th day after application; for Number of adult citrus red mite 18th day: 18th day after application; for Number of adult citrus red mite 26th day: 26th day after application; for pesticidal effects (in words): 150 ppm, citrus red mite on satsuma mandarin, conclusion from Table 1; for Number of adult citrus red mite Before application: baseline count before application, all leaves of satsuma mandarin tree
Excerpt: A 10% water-based suspension concentrate of each of compound D and compound E was dispersed in water to obtain a chemical solution wherein the active ingredient is 150 ppm. Such a chemical solution was applied to satsuma mandarin (Citrus unshiu Marc.) infested with citrus red mite (Panonychus citri) (planted in a plastic pot having a diameter of 24 cm and a height of 29 cm) by means of a sprayer and then left to stand in a greenhouse. Before the application and on the 7th day, 12th day, 18th day and 26th day after the application, the number of adult citrus red mite on all leaves of the satsuma mandarin tree was counted.

CSC(=S)OC(=C(C#N)c1ccc(Cl)cc1)c1ccccc1C(F)(F)F [Compound G, α-(4-Chlorophenyl)-β-(S-methyldithiocarbonyloxy)-β-(2-trifluoromethylphenyl)acrylonitrile]
Number of adult two-spotted spite mite 5th day [1]: 1
Number of adult two-spotted spite mite 9th day [1]: 0
Number of adult two-spotted spite mite 12th day [1]: 2
Number of adult two-spotted spite mite 15th day [1]: 4
pesticidal effects (in words) [1]: excellent pesticidal effects; also recorded: superior pesticidal effects
Number of adult two-spotted spite mite Before application [1]: 106

CSC(=S)OC(=C(C#N)c1ccc(Cl)cc1)c1ccccc1C(F)(F)F [H, α-(4-chlorophenyl)-β-(S-methyldithiocarbonyloxy)-β-(2-trifluoromethylphenyl)acrylonitrile]
Number of adult two-spotted spite mite 5th day [1]: 0
Number of adult two-spotted spite mite 9th day [1]: 1
Number of adult two-spotted spite mite 12th day [1]: 18
Number of adult two-spotted spite mite 15th day [1]: 42
pesticidal effects (in words) [1]: excellent pesticidal effects
Number of adult two-spotted spite mite Before application [1]: 111

CSC(=O)OC(=C(C#N)c1ccc(C(C)(C)C)cc1)c1ccccc1C(F)(F)F [Compound E, α-(4-tert-Butylphenyl)-β-[(methylthio)carbonyloxy]-β-(2-trifluoromethylphenyl)acrylonitrile]
Number of adult citrus red mite 7th day [2]: 0
Number of adult citrus red mite 12th day [2]: 2
Number of adult citrus red mite 18th day [2]: 1
Number of adult citrus red mite 26th day [2]: 4
pesticidal effects (in words) [2]: excellent pesticidal effects; also recorded: superior pesticidal effects
Number of adult citrus red mite Before application [2]: 106

CSC(=O)OC(=C(C#N)c1ccc(C(C)(C)C)cc1)c1ccccc1C(F)(F)F [Compound D, α-(4-tert-Butylphenyl)-β-[(methylthio)carbonyloxy]-β-(2-trifluoromethylphenyl)acrylonitrile]
Number of adult citrus red mite 7th day [2]: 0
Number of adult citrus red mite 12th day [2]: 4
Number of adult citrus red mite 18th day [2]: 2
Number of adult citrus red mite 26th day [2]: 65
pesticidal effects (in words) [2]: excellent pesticidal effects
Number of adult citrus red mite Before application [2]: 111
